Test results as given in patent publication US20030109501A1, “High throughput assay for N-sulfotransferase activity of glucosaminyl N-deacetylase/N-sulfotransferases” (priority 2001, published 2003).

How the values were obtained:
Format in all cases: biochemical
[1] = molecular target: T1, recombinant human wild-type NDST-2 (Homo sapiens, UniProt P52849); experiment: Solid phase SPA assay for N-sulfotransferase activity (wild-type NDST-2); settings: wild-type NDST-2 0.4 μg/well, fully desulfated heparin pre-coated WGA-SPA beads, 35[S]-PAPS 10 nCi/well, room temperature 5 h
T1 construct: the DNA fragment consisting of nucleotides 133-2651 of the human NDST-2 cDNA; made in house; host or cells: DG44 CHO cells (secreted, harvested from supernatant)
T1 sequence (P52849 40-883 limits assumed): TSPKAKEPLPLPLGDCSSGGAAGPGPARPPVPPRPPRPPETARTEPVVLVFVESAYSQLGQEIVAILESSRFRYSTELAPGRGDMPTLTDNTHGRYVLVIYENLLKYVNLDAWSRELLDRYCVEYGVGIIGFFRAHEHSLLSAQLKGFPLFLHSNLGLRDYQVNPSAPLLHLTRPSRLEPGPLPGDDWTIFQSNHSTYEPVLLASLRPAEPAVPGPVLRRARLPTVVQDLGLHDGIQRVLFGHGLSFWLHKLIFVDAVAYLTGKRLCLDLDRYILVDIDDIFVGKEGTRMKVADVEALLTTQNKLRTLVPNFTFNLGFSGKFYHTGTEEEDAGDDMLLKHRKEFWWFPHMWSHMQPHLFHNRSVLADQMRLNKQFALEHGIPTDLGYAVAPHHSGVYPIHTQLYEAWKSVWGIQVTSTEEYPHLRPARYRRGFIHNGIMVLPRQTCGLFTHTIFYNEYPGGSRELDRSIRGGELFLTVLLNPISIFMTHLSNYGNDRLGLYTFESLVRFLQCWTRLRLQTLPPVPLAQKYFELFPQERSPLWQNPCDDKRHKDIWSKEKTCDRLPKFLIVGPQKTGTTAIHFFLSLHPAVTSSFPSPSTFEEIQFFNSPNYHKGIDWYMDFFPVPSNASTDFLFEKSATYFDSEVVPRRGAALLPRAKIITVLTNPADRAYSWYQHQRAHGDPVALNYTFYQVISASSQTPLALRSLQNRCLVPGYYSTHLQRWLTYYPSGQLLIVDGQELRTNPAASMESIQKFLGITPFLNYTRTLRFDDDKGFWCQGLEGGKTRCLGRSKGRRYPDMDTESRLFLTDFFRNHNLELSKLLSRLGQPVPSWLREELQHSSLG
Method: (§1) The assays were conducted at room temperature in Reaction Buffer whose components were described in Example 3. The following components were added into the wells of a 96-well white plate (29444-020, Corning, N.Y.) at a final volume of 100 μl/well.
(§2) 1. 25 μl of the Reaction Buffer.
(§3) 2. 25 μl of desulfated heparin-coated beads (20 mg/ml, 500 μg/well).
(§4) 3. 25 μl of enzyme (ST2, 0.1 mg/ml, 2.5 μg/well or NDST-2, 17.6 μg/ml, 0.44 μg/well) and the plate was incubated on a shaker with slight agitation for 2 min.
(§5) 4. 25 μl of ^35[S]-PAPS (NEG-010, 0.832 mCi/ml, NEN Life Science, Boston, Mass.) (0.4 μCi/ml, 10 nCi/well).
The plate was sealed and incubated for 2-24 h. Radioactivity of the plate was then read in a Packard TopCount microplate scintillation counter (Packard Instrument, Downers Grove, Ill.). […]
(§6) A list of 335 compounds was obtained from a search of the Bristol-Myers Squibb inventoried database using the PHASE program and the bound conformation of PAPS taken from the NDST-1 crystal structure [Kakuta, Y. et al. (1999) J. Biol. Chem. 274, 10673-10676]. […] Percentage of inhibition was determined by equation; % Inhibition=(1-cpm with compound/cpm without compound)×100. […]
Compound A (FIGS. 6A and C) and Compound B (FIGS. 6B and D) in DMSO were added into 96-well white plates at the indicated concentrations. […] The plates were read in the TopCount microplate scintillation counter. […]

[2] = molecular target: T2, recombinant human sulfotransferase domain of NDST-2 (ST2) (Homo sapiens, UniProt P52849); experiment: Solid phase SPA assay for N-sulfotransferase activity (ST2); settings: ST2 2.5 μg/well, room temperature 5 h; for IC50: fully desulfated heparin pre-coated WGA-SPA beads, 35[S]-PAPS 10 nCi/well
T2 construct: subcloning the N-sulfotransferase domain of NDST-2 from the vector pFASTBac-GST-NDST-2; made in house; host or cells: E. coli BL21(DE3)pLysS
T2 sequence (P52849 598-883 limits assumed): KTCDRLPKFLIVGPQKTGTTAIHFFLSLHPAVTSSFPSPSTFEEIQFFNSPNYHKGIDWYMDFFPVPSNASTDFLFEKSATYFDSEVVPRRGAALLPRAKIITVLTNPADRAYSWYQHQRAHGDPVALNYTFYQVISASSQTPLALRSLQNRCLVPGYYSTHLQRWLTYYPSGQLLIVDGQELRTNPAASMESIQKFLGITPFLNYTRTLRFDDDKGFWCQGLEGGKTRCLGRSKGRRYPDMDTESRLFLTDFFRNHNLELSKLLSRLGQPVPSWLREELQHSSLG
Method: as §1, §2, §3, §4, §5
The plate was sealed and incubated for 2-24 h. Radioactivity of the plate was then read in a Packard TopCount microplate scintillation counter (Packard Instrument, Downers Grove, Ill.). The signal-to-noise ratio is the result of counts-per-minute (CPM) in the presence of enzyme divided by counts-per-minute in the absence of enzyme.
as §6, with “10673-10676]. The PHASE program is an internally developed program for database searches based on ligand molecular shape and pharmacophroic elements.” for “10673-10676].”
The plate was incubated at room temperature and 5 h. The plate was read in the TopCount scintillation counter. […] The Km of PAPS is determined as a PAPS concentration by using the Michaelis-Menten equation: y=5×10^−5x+5×10^−5.
Compound A (FIGS. 6A and C) and Compound B (FIGS. 6B and D) in DMSO were added into 96-well white plates at the indicated concentrations. […] The plates were read in the TopCount microplate scintillation counter. Percentage of inhibition was determined by the following equation: % Inhibition=(1-cpm with compound/cpm without compound)×100. IC50 was determined by the Microsoft XLfit program.

[3] = molecular target: T3, recombinant human NDST-2 (wild-type) (Homo sapiens, UniProt P52849); experiment: Manual sulfotransferase assay; settings: final concentration of 6.25 μM; N-acetyl-de-O-sulfated heparin acceptor, 37° C. for 30 min; read-out: percent inhibition of N-sulfotransferase activity
T3 construct: the DNA fragment consisting of nucleotides 133-2651 of the human NDST-2 cDNA; made in house; host or cells: DG44 CHO cells (secreted, harvested from supernatant)
T3 sequence (P52849 40-883 limits assumed): T1 sequence (P52849 40-883 limits assumed)
Method: The manual sulfotransferase assays were conducted basically as described by Pettersson [Pettersson, I. et al. (1991) J. Biol. Chem. 266, 8044-8049; which is hereby incorporated herein by reference]. The following components were added into Eppendorf vials at a final volume of 200 μl/vial.
1. 119 μl of the Reaction Buffer whose components are described in EXAMPLE 3 herein
2. 1 μl of N-acetyl-de-O-sulfated heparin used as a sulfate acceptor (A6039, Sigma, 25 mg/ml, […]).
3. 20 μl of enzyme NDST-2 (17.6 μg/ml, […]).
4. 50 μl of test compounds (compound-treated reaction, 25 μM, 6.25 μM/vial) or 50 μl of 10% DMSO in reaction buffer (untreated reaction).
5. 10 μl of ^35[S]-PAPS used as a sulfate donor (2 μCi/ml, 100 nCi/vial).
All vials were incubated at 37° C. for 30 min. Reactions were stopped by the addition of 400 μl of 100% ethanol and 35 μl of 3 M sodium acetate into the vials. The samples were placed on dry ice for 5 min and then centrifuged at speed of 14,000 rpm for 5 min. The supernatants were discarded while the pellets were washed twice with 70% ethanol and then dissolved in 100 μl of water. […] Radioactivity was determined in a Beckman model LS 3800 scintillation counter (Beckman Coulter, Fullerton, Calif.). […]

| IC50 [1] | IC50 [2] | inhibition at 6.25 µM [3] | Km ([2]; double-reciprocal plot, read-out: Km of PAPS) | Compound |
| --- | --- | --- | --- | --- |
| ~1720 nM | ~399 nM | 94.7% | – | O=P(O)(O)CC(Cc1ccc(Cl)cc1)CP(=O)(O)O [Compound A] |
| ~2440 nM | ~520 nM | 64.8% | – | CC(C)c1ccc(O)c(CN(CP(=O)(O)O)CP(=O)(O)O)c1 [Compound B] |
| – | – | – | ~1 µM | Nc1ncnc2c1ncn2[C@@H]1O[C@H](COP(=O)(O)OS(=O)(=O)O)[C@@H](OP(=O)(O)O)[C@H]1O [PAPS, adenosine 3′-phosphate 5′-phosphosulfate, reference compound] |
